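Grown in 96-well plates, cells were treated for 48 hours with each compound at five concentrations. Insufficient inhibition: endpoint recorded as highest concentration tested. GI50 marks 50% less growth. The concentration for full growth arrest is given as TGI.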
Assays:
Assay in all cases: inhibition of tumour cell growth, NCI panel, 48 h
[1] = test system: RPMI-8226 leukemia
[2] = test system: HOP-62 NSCLC
[3] = test system: IGROV1 ovarian
[4] = test system: A549 NSCLC
[5] = test system: BT-549 breast
[6] = test system: HT29 colon
[7] = test system: DU-145 prostate
[8] = test system: UACC-257 melanoma
[9] = test system: SK-MEL-2 melanoma
[10] = test system: PC-3 prostate
[11] = test system: SF-539 CNS
[12] = test system: U251 CNS
[13] = test system: HCT-15 colon
[14] = test system: TK-10 renal
[15] = test system: SR leukemia
[16] = test system: COLO 205 colon
[17] = test system: OVCAR-4 ovarian
[18] = test system: UO-31 renal
[19] = test system: HOP-92 NSCLC
[20] = test system: OVCAR-8 ovarian
[21] = test system: HCT-116 colon
[22] = test system: ACHN renal
[23] = test system: MDA-MB-231 breast
[24] = test system: HL-60(TB) leukemia
[25] = test system: SK-MEL-28 melanoma
[26] = test system: SK-OV-3 ovarian
[27] = test system: SF-268 CNS
[28] = test system: MOLT-4 leukemia
[29] = test system: EKVX NSCLC
[30] = test system: SNB-19 CNS
[31] = test system: SW-620 colon
[32] = test system: NCI-H460 lung
[33] = test system: NCI-H226 lung
[34] = test system: SN12C renal
[35] = test system: RXF 393 renal
[36] = test system: A498 renal
[37] = test system: NCI/ADR-RES ovarian
[38] = test system: NCI-H23 lung
[39] = test system: HS 578T breast
[40] = test system: OVCAR-5 ovarian
[41] = test system: T-47D breast
[42] = test system: K-562 leukemia
[43] = test system: LOX IMVI melanoma
[44] = test system: MCF7 breast
[45] = test system: CCRF-CEM leukemia
[46] = test system: NCI-H522 lung
[47] = test system: MALME-3M melanoma
[48] = test system: SK-MEL-5 melanoma
[49] = test system: KM12 colon
[50] = test system: 786-0 renal
[51] = test system: SNB-75 CNS
[52] = test system: CAKI-1 renal
[53] = test system: HCC-2998 colon
[54] = test system: UACC-62 melanoma
[55] = test system: SF-295 CNS
[56] = test system: M14 melanoma

## CCn1c2ccccc2c2cc(-n3nncc3-c3ccccc3)ccc21
[1]
  GI50: 289 nM
  TGI: > 71200 nM
[2]
  GI50: 141 nM
  TGI: > 100000 nM
[3]
  GI50: 164 nM
  TGI: > 100000 nM
[4]
  GI50: 208 nM
  TGI: > 100000 nM
[5]
  GI50: 147 nM
  TGI: 2030 nM
[6]
  GI50: 117 nM
  TGI: 927 nM
[7]
  GI50: 375 nM
[8]
  GI50: 22200 nM
  TGI: > 100000 nM
[9]
  GI50: 104 nM
  TGI: > 31200 nM
[10]
  GI50: 139 nM
  TGI: > 100000 nM
[11]
  GI50: 123 nM
  TGI: 754 nM
[12]
  GI50: 116 nM
  TGI: > 100000 nM
[13]
  GI50: 67 nM
  TGI: > 100000 nM
[14]
  GI50: > 73800 nM
  TGI: > 100000 nM
[15]
  GI50: 37.5 nM
  TGI: > 100000 nM
[16]
  GI50: 134 nM
  TGI: 438 nM
[17]
  GI50: 29700 nM
  TGI: > 100000 nM
[18]
  GI50: 649 nM
  TGI: > 100000 nM
[19]
  TGI: > 77600 nM
[20]
  GI50: 300 nM
  TGI: > 100000 nM
[21]
  GI50: 72.2 nM
[22]
  GI50: 301 nM
  TGI: > 100000 nM
[23]
  GI50: 540 nM
  TGI: > 100000 nM
[24]
  GI50: 69.7 nM
  TGI: > 20300 nM
[25]
  GI50: > 64400 nM
  TGI: > 100000 nM
[26]
  GI50: 383 nM
  TGI: > 100000 nM
[27]
  GI50: 843 nM
  TGI: > 100000 nM
[28]
  GI50: 350 nM
  TGI: > 100000 nM
[29]
  GI50: 532 nM
  TGI: > 100000 nM
[30]
  GI50: 285 nM
  TGI: > 100000 nM
[31]
  GI50: 73.2 nM
  TGI: > 100000 nM
[32]
  GI50: 81 nM
  TGI: > 62600 nM
[33]
  GI50: 519 nM
  TGI: > 100000 nM
[34]
  GI50: 800 nM
  TGI: > 100000 nM
[35]
  GI50: 130 nM
  TGI: > 100000 nM
[36]
  GI50: 95.4 nM
  TGI: 799 nM
[37]
  GI50: 53.4 nM
  TGI: > 100000 nM
[38]
  GI50: 375 nM
  TGI: > 100000 nM
[39]
  GI50: 61.5 nM
  TGI: > 100000 nM
[40]
  GI50: 410 nM
  TGI: > 100000 nM
[41]
  TGI: > 100000 nM
[42]
  GI50: 40.7 nM
  TGI: > 100000 nM
[43]
  GI50: 129 nM
  TGI: > 100000 nM
[44]
  GI50: 269 nM
  TGI: > 100000 nM
[45]
  GI50: 203 nM
  TGI: > 100000 nM
[46]
  GI50: 30.2 nM
  TGI: 145 nM
[47]
  GI50: 2430 nM
  TGI: > 100000 nM
[48]
  GI50: 435 nM
  TGI: 4020 nM
[49]
  GI50: 49 nM
[50]
  GI50: 340 nM
  TGI: > 100000 nM
[51]
  GI50: 26.6 nM
  TGI: 262 nM
[52]
  GI50: 77.5 nM
  TGI: > 100000 nM
[53]
  GI50: 277 nM
  TGI: > 52400 nM
[54]
  GI50: 61.8 nM
  TGI: > 100000 nM
[55]
  GI50: 45.9 nM
  TGI: > 100000 nM
[56]
  GI50: 82.9 nM
  TGI: > 100000 nM
